Test results taken from patent US10131652B2, “Pyrimidinyloxy benzene derivatives as herbicides” (E. I. DU PONT DE NEMOURS AND COMPANY, priority 2014, dated 2018).

Assays:
Type in all cases: in vivo
[1] = system: blackgrass (Alopecurus myosuroides); test: Test B postemergence plant response
Procedure, shortened: (§1)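 Plants grown in pots of loam soil–sand blend were sprayed postemergence with formulated test chemicals at 2 to 10 cm height, one- to two-leaf stage. After about 10 days in a greenhouse, injury was visually rated against untreated controls on a 0 to 100 scale (0 no effect, 100 complete control).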

[2] = system: galium (catchweed bedstraw, Galium aparine); test: Test B postemergence plant response
Procedure, shortened: as §1

[3] = system: chickweed (common chickweed, Stellaria media); test: Test D postemergence plant response; details: for Chickweed plant response rating: scale 0 to 100 (0 no effect, 100 complete control); for Plant response rating, Chickweed: scale 0 to 100, 0 no effect, 100 complete control
Source text: At the same time, plants selected from these crop and weed species and also kochia (Kochia scoparia), wild oat (Avena fatua), and chickweed (common chickweed, Stellaria media) were planted in pots containing Redi-Earth® planting medium (Scotts Company, 14111 Scottslawn Road, Marysville, Ohio 43041) comprising spaghnum peat moss, vermiculite, wetting agent and starter nutrients and treated with postemergence applications of test chemicals formulated in the same manner. Plants ranged in height from 2 to 18 cm (1- to 4-leaf stage) for postemergence treatments. Treated plants and controls were maintained in a greenhouse for 13 to 15 days, after which time all species were compared to controls and visually evaluated. Plant response ratings, summarized in Table D, are based on a scale of 0 to 100 where 0 is no effect and 100 is complete control. A dash (-) response means no test result.

[4] = system: oilseed rape (Brassica napus); test: Test D pre-/postemergence plant response; details: Postemergence; for Oilseed Rape plant response rating: scale 0 to 100 (0 no effect, 100 complete control); for Plant response rating, Oilseed Rape: scale 0 to 100, 0 no effect, 100 complete control
Procedure, shortened: (§2)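 Seeds sown in loam–sand blend got preemergence sprays of test chemicals in a non-phytotoxic solvent with surfactant; postemergence sprays went on plants at 1- to 4-leaf stage (2 to 18 cm) in peat/vermiculite medium. After 13 to 15 days in greenhouse, visual injury versus controls scored 0 (no effect) to 100 (complete control).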

[5] = system: pigweed (Amaranthus retroflexus); test: Test D pre-/postemergence plant response; details: Postemergence; for Pigweed plant response rating: scale 0 to 100 (0 no effect, 100 complete control); for Plant response rating, Pigweed: scale 0 to 100, 0 no effect, 100 complete control
Procedure, shortened: as §2

[6] = system: barnyardgrass (Echinochloa crus-galli); test: Test D pre-/postemergence plant response; details: Postemergence; for Barnyardgrass plant response rating: scale 0 to 100 (0 no effect, 100 complete control); for Plant response rating, Barnyardgrass: scale 0 to 100, 0 no effect, 100 complete control
Procedure, shortened: as §2

[7] = system: ragweed (common ragweed, Ambrosia elatior); test: Test D pre-/postemergence plant response; details: Postemergence; for Ragweed plant response rating: scale 0 to 100 (0 no effect, 100 complete control); for Plant response rating, Ragweed: scale 0 to 100, 0 no effect, 100 complete control
Procedure, shortened: as §2

[8] = system: Italian ryegrass (Lolium multiflorum); test: Test D pre-/postemergence plant response; details: Postemergence; for Ryegrass, Italian plant response rating: scale 0 to 100 (0 no effect, 100 complete control); for Plant response rating, Ryegrass, Italian: scale 0 to 100, 0 no effect, 100 complete control
Procedure, shortened: as §2

[9] = system: giant foxtail (Setaria faberii); test: Test D pre-/postemergence plant response; details: Postemergence; for Foxtail, Giant plant response rating: scale 0 to 100 (0 no effect, 100 complete control); for Plant response rating, Foxtail, Giant: scale 0 to 100, 0 no effect, 100 complete control
Procedure, shortened: as §2

corn (Zea mays) = test: Test D pre-/postemergence plant response; details: Postemergence; for Corn plant response rating: scale 0 to 100 (0 no effect, 100 complete control); for Plant response rating, Corn: scale 0 to 100, 0 no effect, 100 complete control
Procedure, shortened: as §2

[10] = system: waterhemp (common waterhemp, Amaranthus rudis); test: Test D pre-/postemergence plant response; details: Postemergence; for Waterhemp plant response rating: scale 0 to 100 (0 no effect, 100 complete control); for Plant response rating, Waterhemp: scale 0 to 100, 0 no effect, 100 complete control
Procedure, shortened: as §2

soybean (Glycine max) = test: Test D pre-/postemergence plant response; details: Postemergence; for Soybean plant response rating: scale 0 to 100 (0 no effect, 100 complete control); for Plant response rating, Soybean: scale 0 to 100, 0 no effect, 100 complete control
Procedure, shortened: as §2

[11] = system: morningglory (Ipomoea coccinea); test: Test D pre-/postemergence plant response; details: Postemergence; for Morningglory plant response rating: scale 0 to 100 (0 no effect, 100 complete control); for Plant response rating, Morningglory: scale 0 to 100, 0 no effect, 100 complete control
Procedure, shortened: as §2

[12] = 125 g ai/ha, postemergence, 0 to 100 scale, 0 no effect, 100 complete control
[13] = Postemergence, 500 g ai/ha, 0 to 100 scale (0 no effect, 100 complete control)

Cn1nnc(-c2ccccc2Oc2ncc(Br)cn2)n1 [Compound 50]
Plant response rating, Blackgrass [1, 12]: 40
Plant response rating, Blackgrass [1, 13]: 60
Plant response rating, Galium [2, 12]: 90
Plant response rating, Galium [2, 13]: 100
Chickweed plant response rating ([3]; 16 g ai/ha): 0
Chickweed plant response rating ([3]; 31 g ai/ha): 0
Plant response rating, Chickweed ([3]; 62 g ai/ha): 5
Plant response rating, Chickweed ([3]; 125 g ai/ha): 5
Oilseed Rape plant response rating ([4]; 16 g ai/ha): 5
Oilseed Rape plant response rating ([4]; 31 g ai/ha): 5
Plant response rating, Oilseed Rape ([4]; 62 g ai/ha): 10
Plant response rating, Oilseed Rape ([4]; 125 g ai/ha): 30
Pigweed plant response rating ([5]; 16 g ai/ha): 0
Pigweed plant response rating ([5]; 31 g ai/ha): 5
Plant response rating, Pigweed ([5]; 62 g ai/ha): 5
Plant response rating, Pigweed ([5]; 125 g ai/ha): 30
Barnyardgrass plant response rating ([6]; 16 g ai/ha): 0
Barnyardgrass plant response rating ([6]; 31 g ai/ha): 0
Plant response rating, Barnyardgrass ([6]; 62 g ai/ha): 0
Plant response rating, Barnyardgrass ([6]; 125 g ai/ha): 0
Ragweed plant response rating ([7]; 16 g ai/ha): 5
Ragweed plant response rating ([7]; 31 g ai/ha): 5
Plant response rating, Ragweed ([7]; 62 g ai/ha): 5
Plant response rating, Ragweed ([7]; 125 g ai/ha): 15
Ryegrass, Italian plant response rating ([8]; 16 g ai/ha): 0
Ryegrass, Italian plant response rating ([8]; 31 g ai/ha): 0
Plant response rating, Ryegrass, Italian ([8]; 62 g ai/ha): 0
Plant response rating, Ryegrass, Italian ([8]; 125 g ai/ha): 0
Foxtail, Giant plant response rating ([9]; 16 g ai/ha): 0
Foxtail, Giant plant response rating ([9]; 31 g ai/ha): 0
Plant response rating, Foxtail, Giant ([9]; 62 g ai/ha): 5
Plant response rating, Foxtail, Giant ([9]; 125 g ai/ha): 35
Corn plant response rating (corn (Zea mays); 16 g ai/ha): 0
Corn plant response rating (corn (Zea mays); 31 g ai/ha): 0
Plant response rating, Corn (corn (Zea mays); 62 g ai/ha): 0
Plant response rating, Corn (corn (Zea mays); 125 g ai/ha): 5
Waterhemp plant response rating ([10]; 16 g ai/ha): 0
Waterhemp plant response rating ([10]; 31 g ai/ha): 0
Plant response rating, Waterhemp ([10]; 62 g ai/ha): 0
Plant response rating, Waterhemp ([10]; 125 g ai/ha): 40
Soybean plant response rating (soybean (Glycine max); 16 g ai/ha): 5
Soybean plant response rating (soybean (Glycine max); 31 g ai/ha): 5
Plant response rating, Soybean (soybean (Glycine max); 62 g ai/ha): 20
Plant response rating, Soybean (soybean (Glycine max); 125 g ai/ha): 40
Morningglory plant response rating ([11]; 16 g ai/ha): 0
Morningglory plant response rating ([11]; 31 g ai/ha): 0
Plant response rating, Morningglory ([11]; 62 g ai/ha): 10
Plant response rating, Morningglory ([11]; 125 g ai/ha): 20
